# From patent US6790968B1, “Substance FKI-0076 and process for producing the same” (The Kitasato Institute, priority 2002, dated 2004)
# Key:
# Format in all cases: cell-based
# Candida albicans KF1 [1] = assay: Enhanced activity of azole antifungal agent, paper disc method; settings: 100 μg, 27° C., 24 hours
# Procedure: (§1) Enhanced activity of azole antifungal agent is determined by the following method. Candida albicans KF1 and Saccharomyces cerevisiae KF26 (ATCC 9763) were used. Candida albicans KF1 was cultured in Waksman broth (glucose 2.0%, peptone 0.5%, meat extract 0.5%, and NaCl 0.5%, pH 7.0) and Saccharomyces cerevisiae KF26 was cultured in potato broth (glucose 1.0%, peptone 0.5% and potato extract 100 ml). Both strains were cultured at 27° C. for 40 hours. Subsequently, each strain was inoculated in GY agar medium (glucose 1.0%, yeast extract 0.5% and agar 0.8%, pH 6.0). […]. Miconazole (Sigma Chemicals, Inc.) was used as the azole antifungal agent. […] Activities were assessed using paper disc ([…]: 8 mm, ADVANTEC Inc.). After being cultured at 27° C. for 24 hours, the diameter of the inhibitory zone was measured for each organism.
# [2] = test system: Saccharomyces cerevisiae KF26 (ATCC 9763); assay: as above; settings: 100 μg, 27° C., 24 hours
# Procedure: as §1
# [3] = test system: Bacillus subtilis KB27 (ATCC6633); assay: MIC, microbroth dilution method; settings: ATCC6633, 24 h
# [4] = test system: Staphylococcus aureus KB210 (ATCC6538P); assay: MIC, microbroth dilution method; settings: 24 h
# [5] = test system: Micrococcus luteus KB40 (ATCC9431); assay: MIC, microbroth dilution method; settings: ATCC9431, 24 h
# [6] = test system: Mycobacterium smegmatis KB42 (ATCC607); assay: MIC, microbroth dilution method; settings: Mycolicibacterium smegmatis, ATCC607, 24 h
# [7] = test system: Escherichia coli KB176 (IF012734); assay: MIC, microbroth dilution method; settings: 24 h
# [8] = test system: Pseudomonas aeruginosa KB105 (IF03080); assay: MIC, microbroth dilution method; settings: 24 h
# [9] = test system: Xanthomonas campestris pv. oryzae KB88; assay: microbe, parasite or virus in culture; settings: 24 h
# [10] = test system: Acholeplasma laidlawii KB174; assay: MIC, microbroth dilution method; settings: KB174, 24 h
# Pyricularia oryzae KB180 = assay: microbe, parasite or virus in culture; settings: KB180, 48 h
# [11] = test system: Aspergillus niger KB103 (ATCC6275); assay: MIC, microbroth dilution method; settings: ATCC6275, 48 h
# [12] = test system: Mucor racemosus KF223 (IF04581); assay: MIC, microbroth dilution method; settings: 24 h
# Candida albicans KF1 [13] = assay: MIC, microbroth dilution method; settings: KF1, 24 h
# [14] = test system: Saccharomyces cerevisiae KF26 (ATCC9763); assay: MIC, microbroth dilution method; settings: ATCC9763, 24 h
# [15] = miconazole 0.1 μg/ml added to GY agar
# [16] = without addition of miconazole, GY agar
smiles,measurement,setting,value
COC(=O)c1cc(OC)cc(OC)c1C(=O)c1coc(CC(C)OC(C)=O)cc1=O (centres unmarked) [FKI-0076 substance],inhibition ring,Candida albicans KF1 [1]; [15],15 mm
same,inhibitory ring,Candida albicans KF1 [1]; [16],did not show an inhibitory ring
same,inhibition ring,[2]; [15],25 mm
same,inhibitory ring,[2]; [16],did not show an inhibitory ring
same,MIC,[3],> 125 µg/mL
same,MIC,[4],> 125 µg/mL
same,MIC,[5],> 125 µg/mL
same,MIC,[6],> 125 µg/mL
same,MIC,[7],> 125 µg/mL
same,MIC,[8],> 125 µg/mL
same,MIC,[9],> 125 µg/mL
same,MIC,[10],125 µg/mL
same,MIC,Pyricularia oryzae KB180,125 µg/mL
same,MIC,[11],> 125 µg/mL
same,MIC,[12],> 125 µg/mL
same,MIC,Candida albicans KF1 [13],> 125 µg/mL
same,MIC,[14],> 125 µg/mL
